According to patent US9029327B2, “Vaccine” (Affiris AG, priority 2009, dated 2015):
No end group written: not given here.

Legend:
[1] = tested on: Ang II peptide; assay: peptide based ELISA of sera from vaccinated mice: binding capacity/titers against the Ang II peptide; type: in vivo; conditions: BALB/c mice, peptide-KLH, Alum; for reactivity/titer of induced sera against Ang II: ELISA titer ODmax/2, compared with sera evoked by Ang II peptide (set as 100%)
Experimental: (§1) In each Figure, on the X-axis sera derived from animals immunized with indicated peptides are listed. On the Y-axis relative titers of induced sera are shown. Titers derived from Ang II treated animals were set as 100%. Titers were calculated as the sera dilution giving half-maximal binding (i.e. ODmax/2). White bars indicate titers against the peptides that were used for vaccination while black bars represent titers against the Ang II peptide.
Therefore, in a first set of experiments each position in the Ang II sequence was systematically replaced by amino acids having similar or different features (see Table 1 for position 2). Subsequently all these peptides were chemically linked via an additional N-terminal cysteine to the protein carrier keyhole limpet haemocyanin (KLH) and administrated to mice (BALB/c) together with Alum as adjuvant. Sera from vaccinated mice were used to analyze the immunogenicity of indicated peptides. For this purpose a peptide based ELISA assay was used to define sera titers against the injected peptide (i.e. Ang II peptide variants, VARIOTOPEs) as well as to define the binding capacity of the obtained sera against the Ang II peptide.
as §1, with “the Figures (FIGS. 1 to 8 for position 1 to position 8) the results derived from these experiments are shown. On” for “each Figure, on”
(§2) All peptides listed in Table 2 were again chemically linked via the N-terminus to KLH adsorbed to Alum and injected s.c. into experimental animals (BALB/c mice). Sera were analyzed by ELISA and antibody responses induced by the peptide variants were compared to that one induced by the original peptide.

[2] = % of the activity of Ang II; cited from earlier work
[3] = tested on: injected peptide (Ang II peptide variants, VARIOTOPEs); assay: peptide based ELISA of sera from vaccinated mice: titers against the injected peptide; type: in vivo; conditions: BALB/c mice, peptide linked via N-terminal cysteine to KLH, Alum; ELISA titer ODmax/2, compared with Ang II treated animals (set as 100%)
Experimental: as §1
Therefore, in a first set of experiments each position in the Ang II sequence was systematically replaced by amino acids having similar or different features (see Table 1 for position 2). Subsequently all these peptides were chemically linked via an additional N-terminal cysteine to the protein carrier keyhole limpet haemocyanin (KLH) and administrated to mice (BALB/c) together with Alum as adjuvant. […]
In the Figures (FIGS. 1 to 8 for position 1 to position 8) the results derived from these experiments are shown. […] Titers were calculated as the sera dilution giving half-maximal binding (i.e. ODmax/2). […]
as §2

Substance	reactivity/titer of induced sera against Ang II [1]	further results
C-DRVYAAPF (CDRVYAAPF; also: C-terminal modification)	diminished reactivity	–
C-DRAAAHAF (CDRAAAHAF; also: C-terminal modification)	diminished reactivity	–
C-DAVYIAPF (CDAVYIAPF; also: C-terminal modification)	diminished reactivity	–
C-DAVYIAAA (CDAVYIAAA; also: C-terminal modification)	diminished reactivity	–
Ang IV	–	activity relative to Ang II [2]: approximately 40%
C-DRVYIHAA (CDRVYIHAA; also: C-terminal modification)	diminished reactivity	–
peptide variant with G on position 1: Ang II peptide CDRVYIHPF with G on position 1, KLH-linked; compare GRVYIHPF (SEQ ID NO:6)	–	sera titer against the injected peptide [3]: almost twice as high; increase of reactivity against Ang II ([1]; versus sera of Ang II treated animals): ~50%
C-DAVYIAAF (CDAVYIAAF; also: C-terminal modification)	diminished reactivity	sera titer against the injected peptide [3]: lower compared to the titers induced by the other antigens
